For this data set, the target named is HIF1A. Briefly: HeLa, 100 nM transfected, 24 h, mean of 3. As to conditions: ASO.

The text below walks through data of the OligoGym collection.

Bases are written 5' to 3'; sugars and linkages follow in the same order, as letters with counts (s phosphorothioate, o phosphodiester; PS: all linkages phosphorothioate). C may stand for cytosine or 5-methylcytosine; the collection does not tell. l = locked nucleic acid (LNA); d = 2'-deoxy (DNA)

“GGCAAGCATCCTG (sugars l1 d1 l2 d7 l2, PS)” came in with a caspase activation (% of PBS control) of 688. Next, “GTTACTGCCTTCTTAC (sugars lddlddddddddlldl, PS)”: 177; “TGGCAAGCATCCTGTA (sugars l1 d1 l2 d8 l4, PS)”: 398. In the case of “TGGCAAGCATCCTGTA (sugars lldllddddddldldl, PS)” it was 483; in that of “TGGCAAGCATCCTGTA (sugars ldddlddddddldldl, PS)”, 213.

Sequence “TACTGCCTTCTTA (sugars l1 d9 l1 d1 l1, PS)” had a caspase activation (% of PBS control) of 142. “GTTACTGCCTTCTTAC (sugars llldldddddddlddl, PS)”: the caspase activation (% of PBS control) turned out to be 277. In the case of “GTTACTGCCTTCTTAC (sugars l1 d3 l1 d7 l4, PS)” it was 259; in that of “GTTACTGCCTTCTTAC (sugars l1 d3 l1 d9 l2, PS)”, 103; in that of “TGGCAAGCATCCTGTA (sugars lddlddddddddlldl, PS)”, 392. Next, “TTACTGCCTTCTT (sugars l1 d1 l2 d7 l2, PS)”: 165. Next, “GTTACTGCCTTCTTAC (sugars l1 d2 l1 d10 l2, PS)”: 93.2; “TGGCAAGCATCCTGTA (sugars lldlddddddddlldl, PS)”: 461.

GGCAAGCATCCTG (sugars l2 d8 l3, PS) returned a caspase activation (% of PBS control) of 657. Next, “TGGCAAGCATCCT (sugars lddlddddddldl, PS)”: 132. In the case of “GTTACTGCCTTCTTAC (sugars l2 d1 l2 d7 l4, PS)” it was 376; in that of “TGGCAAGCATCCTGTA (sugars lldllddddddllddl, PS)”, 354; in that of “TGGCAAGCATCCTGTA (sugars llddlddddddlddll, PS)”, 455. In the case of “TGGCAAGCATCCTGTA (sugars l1 d2 l1 d10 l2, PS)” it was 196; in that of “GTTACTGCCTTCTTAC (sugars l4 d8 l1 d2 l1, PS)”, 209; in that of “TACTGCCTTCTTA (sugars lldlddddddldl, PS)”, 293.

“GTTACTGCCTTCTTAC (sugars lldlldddddddldll, PS)” gave a caspase activation (% of PBS control) of 293. Next, TGGCAAGCATCCTGTA (sugars l2 d11 l3, PS): 365.

Regarding “TGGCAAGCATCCTGTA (sugars l1 d1 l1 d9 l4, PS)”, the caspase activation (% of PBS control) was found to be 379. Next, “GTTACTGCCTTCTTAC (sugars llldlddddddddldl, PS)”: 271; “GTTACTGCCTTCTTAC (sugars ldlldddddddllldl, PS)”: 365; “TGGCAAGCATCCTGTA (sugars lldlldddddddldll, PS)”: 454. In the case of “CAAGCATCCTGTA (sugars l1 d2 l1 d7 l2, PS)” it was 107; in that of “GTTACTGCCTTCTTAC (sugars l1 d10 l1 d3 l1, PS)”, 127; in that of “GTTACTGCCTTCTTAC (sugars ldddlddddddddldl, PS)”, 159. Next, “GTTACTGCCTTCT (sugars l1 d1 l2 d8 l1, PS)”: 136; ACTGCCTTCTTAC (sugars l3 d8 l2, PS): 339; “GTTACTGCCTTCTTAC (sugars l2 d1 l2 d6 l5, PS)”: 474. Take “ACTGCCTTCTTAC (sugars l2 d8 l1 d1 l1, PS)”: the caspase activation (% of PBS control) is 199.

Sequence “TTACTGCCTTCTT (sugars ldldddddddldl, PS)” displayed a caspase activation (% of PBS control) of 154.

In the case of “TGGCAAGCATCCTGTA (sugars ldldlddddddldlll, PS)”, the caspase activation (% of PBS control) was 309. Next, “TGGCAAGCATCCTGTA (sugars ldldlddddddlldll, PS)”: 263; “TGGCAAGCATCCTGTA (sugars l1 d10 l1 d2 l2, PS)”: 261. Next, “TACTGCCTTCTTA (sugars l2 d8 l1 d1 l1, PS)”: 223; “GTTACTGCCTTCTTAC (sugars l1 d1 l1 d9 l4, PS)”: 147.

In turn, ACTGCCTTCTTAC (sugars l1 d10 l2, PS) returned a caspase activation (% of PBS control) of 120.

As for GCAAGCATCCTGT (sugars l3 d9 l1, PS), the caspase activation (% of PBS control) was 346. Next, “TGGCAAGCATCCTGTA (sugars ldldlddddddllldl, PS)”: 261; “GTTACTGCCTTCTTAC (sugars l2 d1 l2 d10 l1, PS)”: 161; “GTTACTGCCTTCTTAC (sugars llldldddddddlldl, PS)”: 341. Next, “TGGCAAGCATCCTGTA (sugars ldddlddddddllddl, PS)”: 246; “CAAGCATCCTGTA (sugars l4 d6 l1 d1 l1, PS)”: 159; GTTACTGCCTTCTTAC (sugars l1 d10 l5, PS): 350. In the case of “TGGCAAGCATCCTGTA (sugars l2 d9 l3 d1 l1, PS)” it was 352; in that of “TTACTGCCTTCTT (sugars l1 d2 l1 d7 l2, PS)”, 126. Turning to GTTACTGCCTTCT (sugars l3 d9 l1, PS), the caspase activation (% of PBS control) came out at 138.

The sequence “GTTACTGCCTTCTTAC (sugars l2 d9 l1 d3 l1, PS)” came in with a caspase activation (% of PBS control) of 107. In the case of “TGGCAAGCATCCTGTA (sugars l2 d9 l1 d1 l3, PS)” it was 369; in that of “GTTACTGCCTTCTTAC (sugars lldldddddddllddl, PS)”, 196; in that of “TGGCAAGCATCCT (sugars l4 d6 l1 d1 l1, PS)”, 480.

In the case of “TGGCAAGCATCCTGTA (sugars l2 d2 l1 d9 l2, PS)”, the caspase activation (% of PBS control) was found to be 391.

The sequence TGGCAAGCATCCT (sugars l1 d9 l3, PS) returned a caspase activation (% of PBS control) of 330. “TGGCAAGCATCCTGTA (sugars l2 d9 l1 d3 l1, PS)” returned a caspase activation (% of PBS control) of 413. The sequence “TGGCAAGCATCCTGTA (sugars l2 d1 l2 d7 l4, PS)” came in with a caspase activation (% of PBS control) of 394. Turning to “GTTACTGCCTTCTTAC (sugars l2 d2 l1 d6 l5, PS)”, the caspase activation (% of PBS control) worked out at 365. In the case of “GTTACTGCCTTCTTAC (sugars l1 d1 l1 d8 l5, PS)” it was 298. Next, “TTACTGCCTTCTT (sugars l1 d1 l2 d6 l3, PS)”: 237; “GGCAAGCATCCTG (sugars l2 d1 l1 d7 l2, PS)”: 560. Next, “GTTACTGCCTTCTTAC (sugars ldddlddddddllddl, PS)”: 125; “TACTGCCTTCTTA (sugars l2 d1 l1 d6 l3, PS)”: 427. “GTTACTGCCTTCTTAC (sugars lddllddddddllldl, PS)”: the caspase activation (% of PBS control) was 414. In the case of “GTTACTGCCTTCTTAC (sugars l1 d12 l1 d1 l1, PS)” it was 103; in that of “GCAAGCATCCTGT (sugars l1 d1 l2 d6 l3, PS)”, 186.

The sequence “TGGCAAGCATCCTGTA (sugars lldllddddddddldl, PS)” displayed a caspase activation (% of PBS control) of 418. Sequence “TGGCAAGCATCCTGTA (sugars l2 d2 l1 d10 l1, PS)” showed a caspase activation (% of PBS control) of 423.

As to “TGGCAAGCATCCT (sugars l1 d1 l2 d6 l3, PS)”, the caspase activation (% of PBS control) was 260. In the case of “TGGCAAGCATCCTGTA (sugars l1 d2 l2 d9 l2, PS)” it was 380.

Sequence “CAAGCATCCTGTA (sugars l1 d9 l1 d1 l1, PS)” displayed a caspase activation (% of PBS control) of 92.1. In the case of TGGCAAGCATCCTGTA (sugars l5 d10 l1, PS) it was 403; in that of CAAGCATCCTGTA (sugars l4 d8 l1, PS), 194.

On to “TGGCAAGCATCCTGTA (sugars l2 d1 l1 d11 l1, PS)”, for which the caspase activation (% of PBS control) amounted to 378.

With “GTTACTGCCTTCTTAC (sugars llldlddddddllldl, PS)”, the caspase activation (% of PBS control) stood at 485. In turn, TTACTGCCTTCTT (sugars l2 d8 l3, PS) showed a caspase activation (% of PBS control) of 270. Next, “GTTACTGCCTTCTTAC (sugars lddlldddddddldll, PS)”: 240; “TGGCAAGCATCCTGTA (sugars llddlddddddlldll, PS)”: 446; “GTTACTGCCTTCTTAC (sugars l2 d1 l1 d11 l1, PS)”: 110. Next, GTTACTGCCTTCTTAC (sugars l1 d12 l3, PS): 100; TTACTGCCTTCTT (sugars l1 d10 l2, PS): 102; “GTTACTGCCTTCTTAC (sugars ldllldddddddlddl, PS)”: 461. As for TTACTGCCTTCTT (sugars l4 d8 l1, PS), the caspase activation (% of PBS control) is 202. Next, “TGGCAAGCATCCTGTA (sugars ldlldddddddlddll, PS)”: 306. In the case of “TGGCAAGCATCCTGTA (sugars ldlddddddddldldl, PS)” it was 206; in that of “GTTACTGCCTTCTTAC (sugars lllllddddddldldl, PS)”, 467; in that of “GTTACTGCCTTCTTAC (sugars l1 d10 l1 d2 l2, PS)”, 102.
